Where two headings read alike, the source gives them in different places.
Assays:
[1] = target: T1, myeloperoxidase (Homo sapiens (Human), UniProt P05164); experiment: MPO Peroxidation Assay (Amplex Red Assay); assay type: biochemical; conditions: MPO peroxidation activity, 100 mM KPi (pH 7.4), ten minute preincubation; potency ranges defined in nM
Method: MPO Peroxidation Assay (Amplex Red Assay)
MPO peroxidation activity was measured in 100 mM KPi (pH 7.4) by utilizing the non-fluorescent reagent Amplex Red (Invitrogen Cat. #A12222) which can be oxidized to the highly fluorescent resorufin. Amplex Red is oxidized by the peroxidase action of MPO to resorufin. Reactions were carried out in 50 μL total volume by adding a 25 μL mixture of 200 pM myeloperoxidase and 40 nM H2O2 (Sigma #349887) to 100 nL inhibitor in 100% DMSO in a 384 well Perkin Elmer Optiplate. Enzyme and compound were preincubated for ten minutes at room temperature.
After the ten minute preincubation, 25 μL of an Amplex Red mixture containing 200 μM Amplex Red and 10 mM H2O2 was added to the plate. Kinetic determinations were carried out immediately on a Perkin Elmer Envision (15 minute kinetic read, Ex: 535 nm, Em: 590 nm).
(§1) IC50 values were calculated by determining the slope of the linear portion of the kinetic trace (180-540 secs), and using that calculated slope to determine % inhibition occurring at each concentration of inhibitor using the following equation:
(§2) [formula] where A=minimal Y value (activity level of inhibited sample), B=maximal Y value (activity level of uninhibited sample), C=Log IC50, D=Hill Slope, x=concentration of inhibitor. MPO Chlorination Assay (APF Assay) MPO chlorination activity was measured in 100 mM KPi (pH 7.4) by utilizing the non-fluorescent reagent Aminophenyl fluorescein (APF, Invitrogen Cat. #A36003). APF is cleaved by (—OCl) to yield the fluorescent compound fluorescein. Reactions were carried out in 50 μL total volume by adding a 25 μL mixture of 200 pM myeloperoxidase and 120 mM NaCl to 100 nL inhibitor in 100% DMSO in a 384 well, non-binding surface clear bottom plate (Corning #3655). Enzyme, inhibitor, and chloride were preincubated for ten minutes at room temperature.

[2] = target: T1, myeloperoxidase; experiment: MPO Chlorination Assay (APF Assay); assay type: biochemical; conditions: MPO chlorination activity, 100 mM KPi (pH 7.4), 120 mM NaCl, ten minute preincubation; potency ranges defined in nM
Method: as §2
After the ten minute preincubation, 25 μL of an APF mixture containing […], 120 mM NaCl and 10 μM H2O2 was added to the plate using the internal dispensing system of a Hammatsu FDSS 6000. Kinetic determinations were carried out immediately on the FDSS 6000 (3 minute kinetic read, 1 read every second, ex: 485 nm, em: 535 nm). IC50 values for inhibitors were calculated by taking the slope of the linear portion of the kinetic measurement (20 seconds to 80-120 secs).
as §1
[formula] where A=minimal Y value (activity level of inhibited sample), B=maximal Y value (activity level of uninhibited sample), C=Log IC50, D=Hill Slope, x=concentration of inhibitor. EPX Bromination Assay

T1 sequence (P05164 49-745): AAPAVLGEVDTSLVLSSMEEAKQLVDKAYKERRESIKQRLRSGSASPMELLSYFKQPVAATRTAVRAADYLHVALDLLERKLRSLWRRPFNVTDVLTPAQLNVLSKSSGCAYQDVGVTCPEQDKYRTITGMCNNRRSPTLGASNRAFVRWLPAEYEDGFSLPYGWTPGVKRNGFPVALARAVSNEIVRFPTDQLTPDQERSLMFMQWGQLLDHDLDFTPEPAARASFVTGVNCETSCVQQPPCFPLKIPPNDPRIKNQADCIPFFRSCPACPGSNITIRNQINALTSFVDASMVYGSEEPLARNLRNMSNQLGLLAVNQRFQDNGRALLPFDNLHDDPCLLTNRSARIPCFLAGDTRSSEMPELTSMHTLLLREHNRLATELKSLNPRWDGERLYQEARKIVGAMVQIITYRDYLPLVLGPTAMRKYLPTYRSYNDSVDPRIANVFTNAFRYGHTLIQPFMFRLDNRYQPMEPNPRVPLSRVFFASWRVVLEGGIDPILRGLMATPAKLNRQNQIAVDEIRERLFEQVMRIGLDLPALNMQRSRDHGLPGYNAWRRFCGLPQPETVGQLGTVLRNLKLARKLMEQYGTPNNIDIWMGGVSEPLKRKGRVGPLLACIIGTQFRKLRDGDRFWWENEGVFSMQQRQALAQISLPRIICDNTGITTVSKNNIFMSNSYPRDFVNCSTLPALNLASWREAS

Row | Compound | IC50 [1] | IC50 [2] | other results
1 | c1ccc(C(Nc2cc(C3CCNCc4cccc(c4)COc4cccc(c4)Cn4cc3cn4)c3nnn(C(c4ccccc4)(c4ccccc4)c4ccccc4)c3n2)(c2ccccc2)c2ccccc2)cc1 (stereo not drawn) |  |  | ring closure, isolated yield (from OCc1cccc(CNCCC(c2cnn(Cc3cccc(O)c3)c2)c2cc(NC(c3ccccc3)(c3ccccc3)c3ccccc3)nc3c2nnn3C(c2ccccc2)(c2ccccc2)c2ccccc2)c1, ether bond, 17-membered ring, PPh3/DIAD, THF): 94%
2 | CC(C)(C)OC(=O)N1CC=C(c2cc(N)nc3[nH]nnc23)c2cnn(c2)Cc2cccc(c2)O[C@@H]2CC13CCC2(c1ccccc1)CC3 |  |  | ring closure, isolated yield (from CC(C)(C)OC(=O)N(C/C=C(\c1cnn(Cc2cccc(O)c2)c1)c1cc(N)nc2[nH]nnc12)C12CCC(c3ccccc3)(CC1)[C@@H](O)C2, ether bond, 15-membered ring, cyanomethylenetributylphosphorane, toluene, 5.0 mM, 100.0 °C): 85%
3 | C[C@@H](Cc1cccc(Oc2cccc(Cn3cc(B4OC(C)(C)C(C)(C)O4)cn3)c2)c1)N(C/C=C(\I)c1cc(NC(c2ccccc2)(c2ccccc2)c2ccccc2)nc2c1nnn2C(c1ccccc1)(c1ccccc1)c1ccccc1)C(=O)OC(C)(C)C |  |  | ring closure, isolated yield (the molecule shown is the open-chain precursor, cc_pd bond, 17-membered ring, PdCl2(dppf)-CH2Cl2/K2CO3, dioxane/H2O, 1.28 mM, 85.0 °C): 36%
4 | CC(C)(C)OC(=O)N(C/C=C(\I)c1cc(NC(c2ccccc2)(c2ccccc2)c2ccccc2)nc2c1nnn2C(c1ccccc1)(c1ccccc1)c1ccccc1)CC(=O)N(CCc1ccccc1)Cc1cccc(Cn2cc(B3OC(C)(C)C(C)(C)O3)cn2)c1 |  |  | ring closure, isolated yield (the molecule shown is the open-chain precursor, cc_pd bond, 15-membered ring, PdCl2(dppf)-CH2Cl2/K2CO3, dioxane/H2O, 1.07 mM, 85.0 °C): 42%
5 | CC1(C)OB(c2cnn(Cc3cccc(Oc4cccc(CCNC/C=C(\I)c5cc(NC(c6ccccc6)(c6ccccc6)c6ccccc6)nc6c5nnn6C(c5ccccc5)(c5ccccc5)c5ccccc5)c4)c3)c2)OC1(C)C |  |  | ring closure, isolated yield (the molecule shown is the open-chain precursor, cc_pd bond, 17-membered ring, PdCl2(dppf)-CH2Cl2/K2CO3, dioxane/H2O, 2.45 mM, 85.0 °C): 35.1%
6 | Oc1cccc(Cn2cc(C(CCNCc3cccc(I)c3)c3cc(NC(c4ccccc4)(c4ccccc4)c4ccccc4)nc4c3nnn4C(c3ccccc3)(c3ccccc3)c3ccccc3)cn2)c1 (stereo not drawn) |  |  | ring closure, isolated yield (the molecule shown is the open-chain precursor, ether bond, 16-membered ring, CuI/1,10-phenanthroline/Cs2CO3, toluene, 4.8 mM, 150.0 °C): 29%
7 | CC(C)(C)OC(=O)N(C/C=C(\I)c1cc(NC(c2ccccc2)(c2ccccc2)c2ccccc2)nc2c1nnn2C(c1ccccc1)(c1ccccc1)c1ccccc1)[C@H]1C[C@H](Cc2ccccc2)[C@H](Oc2cccc(Cn3cc(B4OC(C)(C)C(C)(C)O4)cn3)c2)C1 |  |  | ring closure, isolated yield (the molecule shown is the open-chain precursor, cc_pd bond, 15-membered ring, PdCl2(dppf)-CH2Cl2/K2CO3, dioxane/H2O, 1.0 mM, 85.0 °C): 45%
8 | CN1CCC(c2cc(N)nc3[nH]nnc23)c2cnn(c2)Cc2cccc(c2)Oc2cccc(c2)C1 (stereo not drawn) [Example 6, 7-{10-methyl-17-oxa-3,4,10-triazatetracyclo[16.3.1.1^3,^6.1^12,^1^6]tetracosa-1(22),4,6(24),12,14,16(23),18,20-octaen-7-yl}-3H-[1,2,3]triazolo[4,5-b]pyridin-5-amine] | 1000 to 10000 nM | 101 to 999 nM | 
9 | Nc1cc(C2CCN[C@H]3CC[C@@H](COc4cccc(c4)Cn4cc2cn4)C3)c2nn[nH]c2n1 (stereo partly drawn) [Example 32, 7-[(11S,14R)-16-Oxa-3,4,10-triazatetracyclo[15.3.1.1^3,^6.1^11,^1^4]tricosa-1(21),4,6(23),17,19-pentaen-7-yl]-3H-[1,2,3]triazolo[4,5-b]pyridin-5-amine] | 101 to 999 nM | 1 to 100 nM | 
10 | COc1ccc2cc1OCc1cccc(c1)Cn1cc(cn1)C(c1cc(N)nc3[nH]nnc13)CCNC2 (stereo not drawn) [Example 13, 7-{15-Methoxy-17-oxa-3,4,10-triazatetracyclo[17.3.1.1^3,^6.1^12,^1^6]pentacosa-1(23),4,6(25),12(24),13,15,19,21-octaen-7-yl}-3H-[1,2,3]triazolo[4,5-b]pyridin-5-amine] | 1000 to 10000 nM | 101 to 999 nM | 
11 | Nc1cc(C2CCN[C@H](CO)Cc3cccc(c3)Oc3cccc(c3)Cn3cc2cn3)c2nn[nH]c2n1 (stereo partly drawn) [Example 11, [(11S)-7-{5-Amino-3H-[1,2,3]triazolo[4,5-b]pyridin-7-yl}-18-oxa-3,4,10-triazatetracyclo[17.3.1.1^3,^6.1^13,^1^7]pentacosa-1(23),4,6(25),13,15,17(24),19,21-octaen-11-yl]methanol] | 101 to 999 nM | 1 to 100 nM | 

Further lines, with some results ahead:

Row | IC50 [1] | IC50 [2] | Compound | other results
12 | 101 to 999 nM | 1 to 100 nM | C[C@H]1Oc2cccc(c2)Cn2cc(cn2)C(c2cc(N)nc3[nH]nnc23)CCNCc2cccc1c2 (stereo partly drawn) [Example 10, 7-[(17R)-17-Methyl-18-oxa-3,4,10-triazatetracyclo[17.3.1.1^3,^6.1^12,^16]pentacosa-1(23),4,6(25),12,14,16(24),19,21-octaen-7-yl]-3H-[1,2,3]triazolo[4,5-b]pyridin-5-amine] | 
13 | 101 to 999 nM | 1 to 100 nM | Nc1cc(C2CCNCc3cccc(c3)Oc3cccc(c3)Cn3cc2cn3)c2nn[nH]c2n1 (stereo not drawn) [Example 1, 7-{17-oxa-3,4,10-triazatetracyclo[16.3.1.1^3,^6.1^12,^1^6]tetracosa-1(22),4,6(24),12,14,16(23),18,20-octaen-7-yl}-3H-[1,2,3]triazolo[4,5-b]pyridin-5-amine] | 
14 | 1000 to 10000 nM | 1 to 100 nM | Nc1cc(C2CCNC34CCC(c5ccccc5)(CC3)[C@@H](C4)Oc3cccc(c3)Cn3cc2cn3)c2nn[nH]c2n1 (stereo partly drawn) [Example 28, 7-[(17R)-18-Phenyl-16-oxa-2,8,9-triazapentacyclo[16.2.2.1^1,^1^7.1^6,^9.1^11,^1^5]pentacosa-6(25),7,11(24),12,14-pentaen-5-yl]-3H-[1,2,3]triazolo[4,5-b]pyridin-5-amine] | 
15 | 101 to 999 nM | 1 to 100 nM | Nc1cc(C2CCNCCc3cccc(c3)OCc3cccc(c3)Cn3cc2cn3)c2nn[nH]c2n1 (stereo not drawn) [Example 16, 7-{18-Oxa-3,4,10-triazatetracyclo[18.3.1.1^3,^6.1^13,^1^7]hexacosa-1(24),4,6(26),13(25),14,16,20,22-octaen-7-yl}-3H-[1,2,3]triazolo[4,5-b]pyridin-5-amine] | 
16 | 101 to 999 nM | 1 to 100 nM | Nc1cc(C2CCNCC3(CC3)COc3cccc(c3)Cn3cc2cn3)c2nn[nH]c2n1 (stereo not drawn) [Example 19, 7-{14′-Oxa-3′,4′,10′-triazaspiro[cyclopropane-1,12′-tricyclo[13.3.1.1^3,^6]icosane]-1′(19′),4′,6′(20′),15′,17′-pentaen-7′-yl}-3H-[1,2,3]triazolo[4,5-b]pyridin-5-amine] | 
17 | 101 to 999 nM | 1 to 100 nM | Nc1cc(C2CCNCC3(CC3)COc3cccc(c3)Cn3cc2cn3)c2nn[nH]c2n1 (single isomer, unassigned) [Example 21, 7-{14′-Oxa-3′,4′,10′-triazaspiro[cyclopropane-1,12′-tricyclo[13.3.1.1^3,^6]icosane]-1′(19′),4′,6′(20′),15′,17′-pentaen-7′-yl}-3H-[1,2,3]triazolo[4,5-b]pyridin-5-amine] | 
18 | 101 to 999 nM | 1 to 100 nM | Nc1cc(C2CCN3C[C@H](Cc4ccccc4)[C@@H](C3)Oc3cccc(c3)Cn3cc2cn3)c2nn[nH]c2n1 (stereo partly drawn) [Example 31, 7-[(3S,4S)-4-Benzyl-2-oxa-6,12,13-triazatetracyclo[13.3.1.1^3,^6.1^1^0,^13]henicosa-1(18),10(20),11,15(19),16-pentaen-9-yl]-3H-[1,2,3]triazolo[4,5-b]pyridin-5-amine] | 
19 | 1 to 100 nM | 1 to 100 nM | Nc1cc([C@H]2CCN[C@H]3C[C@H](Cc4ccccc4)[C@@H](C3)Oc3cccc(c3)Cn3cc2cn3)c2nn[nH]c2n1 [Example 26, 7-[(3R,4S,6S,10R)-4-Benzyl-2-oxa-7,13,14-triazatetracyclo[14.3.1.1^3,^6.1^11,^1^4]docosa-1(19),11(21),12,16(20),17-pentaen-10-yl]-3H-[1,2,3]triazolo[4,5-b]pyridin-5-amine] | 
20 | 1 to 100 nM | 1 to 100 nM | Nc1cc([C@@H]2CCN[C@H]3C[C@H](Cc4ccccc4)[C@@H](C3)Oc3cccc(c3)Cn3cc2cn3)c2nn[nH]c2n1 [Example 25, 7-[(3R,4S,6S,10S)-4-Benzyl-2-oxa-7,13,14-triazatetracyclo[14.3.1.1^3,^6.1^11,^1^4]docosa-1(19),11(21),12,16(20),17-pentaen-10-yl]-3H-[1,2,3]triazolo[4,5-b]pyridin-5-amine] | 

From patent US10577383B2, “Macrocyclic inhibitors of myeloperoxidase” (BRISTOL-MYERS SQUIBB COMPANY, priority 2016, dated 2020)
